This passage reports Activity results from ChEMBL document CHEMBL6127049, “Discovery of the selective and nanomolar inhibitor of DPP-4 more potent than sitagliptin by structure-guided rational design” (Eur J Med Chem, 2024).

Active and inactive are the calls of the source. The rule behind the calls is not given here.

In series [1] the test system is Rattus norvegicus. The series is described as follows: Antihyperlipidemic effect in STZ-induced type 2 diabetes male Wistar albino rat model assessed as total cholesterol level at 20 mg/kg, po measured after 4 weeks (reference value: 227.04 +/- 4.10 mg/dL). Type of series: functional.
Series [2] concerns Rattus norvegicus. Briefly: Anti-diabetic activity in STZ-induced type 2 diabetes male Wistar albino rat model assessed as fasting blood glucose level at 20 mg/kg, po measured on day 21. The settings on record: time 21 day. Type of series: functional.
Series [3] deals with Rattus norvegicus. The series is described as follows: Antihyperlipidemic effect in STZ-induced type 2 diabetes male Wistar albino rat model assessed as triglyceride level at 20 mg/kg, po measured after 4 weeks (reference value: 190.23 +/- 4.37 mg/dL). Type of series: functional.
Series [4] deals with Rattus norvegicus. The series is described as follows: Reduction of alkaline phosphatase (ALP) level in STZ-induced type 2 diabetes male Wistar albino rat model at 20 mg/kg, po measured after 4 weeks by hepatic function test. The series is classed as functional, organism-based.
A short description of series [5]: Acute toxicity in Balb/C mouse assessed as changes in general appearance at 1250 to 2000 mg/kg, po. Type of series: organism-based. The note with it: in vivo, dose 1250-2000 mg/kg.
Series [6] relates to Rattus norvegicus. The series is described as follows: Antihyperlipidemic effect in STZ-induced type 2 diabetes male Wistar albino rat model assessed as LDL level at 20 mg/kg, po measured after 4 weeks (reference value: 184.65 +/- 4.57 mg/dL). Type of series: functional.
The test system of series [7] is Rattus norvegicus. The series is described as follows: Antihyperlipidemic effect in STZ-induced type 2 diabetes male Wistar albino rat model assessed as triglyceride level at 10 mg/kg, po measured after 4 weeks (reference value: 190.23 +/- 4.37 mg/dL). Type of series: functional.
Series [8] relates to Rattus norvegicus. The series is described as follows: Anti-diabetic activity in normal Wistar rat model assessed as blood glucose level at 10 mg/kg, po followed by treated administered 3 mg/kg orally measured immediately after administration by Oral glucose tolerance test (reference value: 105.12 mg/dL). Type of series: functional.
In series [9] the test system is Rattus norvegicus. The series is described as follows: Anti-diabetic activity in normal Wistar rat model assessed as blood glucose level at 10 mg/kg, po followed by treated administered 3 mg/kg orally measured after 30 mins by Oral glucose tolerance test (reference value: […] 176.14 + /- 4.04 mg/dL). Type of series: functional. The settings on record: 0.5 h.

For `CC1=C([N+](=O)[O-])C(c2ccc(F)c(F)c2)N=C(N)N1C(=O)CN1Cc2cn(S(C)(=O)=O)nc2C1` (centres undefined), the Activity in the series with Rattus norvegicus [1] is 137.34 mg/dL; in the series on Rattus norvegicus [2], 134 mg/dL; in the series with Rattus norvegicus [3], 118.76 mg/dL; in series [5], “Non-Toxic”; with Rattus norvegicus [6], 114.54 mg/dL; in the series with Rattus norvegicus [7] it was 150.32 mg/dL. Besides, the results for the Activity in the series on Rattus norvegicus [8] and in the series on Rattus norvegicus [9] were 103.57 mg/dL and 123.04 mg/dL, respectively. Moreover, the outcome in the series on Rattus norvegicus [4] was Active.
